Measurements: patent publication US11584744B2 (UNIVERSITY OF WASHINGTON, priority 2017, dated 2023)
Values after ≈ are worked out from the molar mass of the structure shown. Values joined by “and” are separate entries in the source; they are usually repeats but may differ in a detail not shown here. Identical values can stand only once. Like-named read-outs stand apart in the source and are kept apart here.

Key:
[1] = tested on: S. aureus MSSA (ATCC 29213); assay: MIC susceptibility testing; assay type: cell-based, Staphylococcus aureus; details: S. aureus ATCC 29213; for MIC: Staphylococcus aureus, read-out: (F) S. aureus (ATCC 29213) MIC
MetRS (C. parvum) = MetRS (C. parvum) (Cryptosporidium parvum, UniProt Q5CVN0); assay: MetRS (C. parvum) enzyme inhibition; assay type: biochemical; details: read-out: (C) MetRS (C. parvum) IC50
Sequence of MetRS (C. parvum) (Q5CVN0 entry or part of it): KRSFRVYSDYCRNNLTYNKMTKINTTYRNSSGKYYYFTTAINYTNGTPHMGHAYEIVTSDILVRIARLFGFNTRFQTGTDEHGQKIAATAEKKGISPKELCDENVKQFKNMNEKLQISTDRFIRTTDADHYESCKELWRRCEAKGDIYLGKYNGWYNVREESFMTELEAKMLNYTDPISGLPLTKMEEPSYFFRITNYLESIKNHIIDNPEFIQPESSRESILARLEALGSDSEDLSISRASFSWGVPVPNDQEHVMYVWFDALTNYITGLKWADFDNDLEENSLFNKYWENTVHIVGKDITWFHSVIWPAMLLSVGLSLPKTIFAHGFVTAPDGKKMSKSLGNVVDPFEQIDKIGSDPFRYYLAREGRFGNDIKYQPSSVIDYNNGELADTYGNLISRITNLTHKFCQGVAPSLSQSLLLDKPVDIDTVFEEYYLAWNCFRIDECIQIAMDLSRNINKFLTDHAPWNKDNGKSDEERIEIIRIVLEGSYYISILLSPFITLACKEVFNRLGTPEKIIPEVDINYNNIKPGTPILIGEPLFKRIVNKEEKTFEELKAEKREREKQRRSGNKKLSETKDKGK

C. parvum = C. parvum growth inhibition; assay type: cell-based, Cryptosporidium parvum; details: read-out: (J) C. parvum EC50
[2] = tested on: G. lamblia (ATCC GL50803); assay: G. lamblia growth inhibition; assay type: cell-based; details: Giardia duodenalis, read-out: (K) G. lamblia (ATCC GL50803) EC50
MetRS (T. brucei) = target: T1, MetRS (T. brucei) (Trypanosoma brucei brucei, UniProt Q38C91); assay: MetRS (T. brucei) enzyme inhibition; assay type: biochemical
T1 sequence (Q38C91 1-773): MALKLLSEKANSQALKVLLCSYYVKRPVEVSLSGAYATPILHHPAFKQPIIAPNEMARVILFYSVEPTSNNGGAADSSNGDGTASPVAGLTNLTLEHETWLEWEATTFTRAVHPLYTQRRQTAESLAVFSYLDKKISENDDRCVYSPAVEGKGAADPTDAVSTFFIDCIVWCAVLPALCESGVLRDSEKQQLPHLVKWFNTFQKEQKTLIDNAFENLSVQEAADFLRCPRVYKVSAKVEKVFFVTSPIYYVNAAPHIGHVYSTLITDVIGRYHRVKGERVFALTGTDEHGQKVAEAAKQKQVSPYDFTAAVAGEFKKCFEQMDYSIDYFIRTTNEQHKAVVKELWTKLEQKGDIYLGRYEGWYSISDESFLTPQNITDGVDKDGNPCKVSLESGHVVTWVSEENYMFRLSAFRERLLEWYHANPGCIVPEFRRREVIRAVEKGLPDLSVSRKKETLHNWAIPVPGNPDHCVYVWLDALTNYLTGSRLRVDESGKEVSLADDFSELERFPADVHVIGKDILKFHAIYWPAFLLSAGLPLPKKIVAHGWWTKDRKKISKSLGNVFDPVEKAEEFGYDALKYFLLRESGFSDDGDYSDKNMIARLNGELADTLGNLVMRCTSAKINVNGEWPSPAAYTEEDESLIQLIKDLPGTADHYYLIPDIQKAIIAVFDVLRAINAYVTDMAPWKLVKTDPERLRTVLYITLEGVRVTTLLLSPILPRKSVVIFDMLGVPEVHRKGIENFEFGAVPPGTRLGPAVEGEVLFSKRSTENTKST

[3] = tested on: S. aureus MRSA (ATCC 33591); assay: MIC susceptibility testing; assay type: cell-based, Staphylococcus aureus; details: Staphylococcus aureus, MRSA ATCC33591; read-out: (G) MRSA (ATCC33591) MIC
Method in brief: (§1)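 CLSI broth microdilution with two-fold compound dilutions, in triplicate; cells added in medium at 1×10^6 CFUs/mL, DMSO ≤0.5%. Media: MHB for S. aureus, CA-MHB for E. coli and E. faecium, CA-MHB plus 3% laked horse blood for S. pyogenes (5% CO2).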

T. brucei = T. brucei growth inhibition; assay type: cell-based, Trypanosoma brucei; details: read-out: (D) T. brucei EC50
T. cruzi = T. cruzi growth inhibition; assay type: cell-based, Trypanosoma cruzi; details: read-out: (E) T. cruzi EC50
[4] = tested on: E. faecium VRE (ATCC 51559); assay: MIC susceptibility testing; assay type: cell-based, Enterococcus faecium; details: E. faecium ATCC 51559; for MIC: Enterococcus faecium, read-out: (I) E. faecium (ATCC 51559) MIC
Method in brief: as §1

[5] = target: recombinant S. aureus MetRS enzyme (Staphylococcus aureus, UniProt A0A0H2XID2); assay: Inhibition of SaMetRS, ATP depletion assay; assay type: biochemical; details: read-out: (B) MetRS (S. aureus) IC50
Method in brief: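 IC50 values come from sigmoidal fits of percent inhibition, based on ATP left after 120 min as measured by Kinase-Glo. Substrates were 20 μM L-methionine and 150 nM ATP, added after compounds sat 15 min at room temperature with 25 nM His-tagged SaMetRS, bulk E. coli tRNA, pH 7.9 HEPES buffer and 2% DMSO.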

S. pyogenes (ATCC 19615) = assay: MIC susceptibility testing; assay type: cell-based; details: Streptococcus pyogenes, ATCC19615, S. pyogenes ATCC 19615; read-out: (H) S. pyogenes (ATCC 19615) MIC
Excerpt: Media and culture conditions. Mueller Hinton broth (MHB), cation adjusted Mueller Hinton broth (CA-MHB), and Brain Heart Infusion broth (BHI) were purchased from Becton Dickinson (Franklin Lakes, N.J.). Tryptic soy agar (TSA) plates, TSA with 5% sheep blood plates, and CA-MHB with 3% laked horse blood were purchased from Remel (San Diego, Calif.). MHB was used to assay all Staphylococcus aureus strains. CA-MHB was used for Staphylococcus epidermidis, Enterococcus faecalis, Enterococcus faecium, Escherichia coli, and Pseudomonas aeruginosa. CA-MHB supplemented with 3% laked horse blood was used for Streptococcus pneumoniae and Streptococcus pyogenes. Staphylococcus, Enterococcus, Escherichia, and Pseudomonas strains were cultured at 37° C. with ambient air. Streptococcus strains were cultured in 37° C. with 5% CO2. Separate conditions for radiolabeled precursor uptake assays are described below.
Susceptibility testing: Minimum inhibitory concentration (MIC) determinations were performed in triplicate in 96-well round bottom microtiter plates (Corning, Corning N.Y.) as described by the Clinical and Laboratory Standards Institute (CLSI). Serial two-fold dilutions of compounds were added to plates in 50 μL volumes. An additional 50 μL of media containing bacterial cells (1×10^6 CFUs/mL) was then added to each well. Maximum DMSO concentrations were 0.5%. Plates were incubated at 37° C. for at least 18 h before reading the susceptibility result by optical absorbance (OD600) using a BioTek ELx800. The lowest concentration causing ≥90% growth inhibition compared to the untreated control was recorded as the MIC (and also corresponded to the visual MIC). MICs were measured at least twice and the higher value (if different) was recorded herein.

Structure (SMILES)	MIC [1] [µg/mL]	IC50 (MetRS (C. parvum)) [nM]	EC50 (C. parvum; Cryptosporidium parvum) [nM]	EC50 (C. parvum)	EC50 [2] [nM]	IC50 (MetRS (T. brucei)) [nM]	MIC [3] [µg/mL]	EC50 (T. brucei; Trypanosoma brucei) [nM]	EC50 (T. brucei) [nM]	EC50 (T. cruzi; Trypanosoma cruzi) [nM]	MIC [4] [µg/mL]	(I) E. faecium (ATCC 51559) MIC [4] [µg/mL]	(F) S. aureus (ATCC 29213) MIC [1]	EC50 (T. cruzi) [nM]	IC50 [5] [nM]	MIC (S. pyogenes (ATCC 19615)) [µg/mL]
C[S+]([O-])c1nc(Cc2ccc(Cl)cc2Cl)cn1Cc1nc2ccc(F)nc2[nH]1 (centres unmarked) [Compound 2120, 4-[(2,4-dichlorophenyl)methyl]-1-({5-fluoro-1H-imidazo[4,5-b]pyridin-2-yl}methyl)-2-methanesulfinyl-1H-imidazole]	1.26 (≈ 2.87 µM)	< 40	1230	–	–	< 40	–	13.6	–	295	0.336 (≈ 0.767 µM)	–	–	–	< 25	> 4
COc1ccc(-c2nccn3c(=O)n(Cc4nc5nc(Cl)ccc5[nH]4)cc23)c(Cl)c1 [Compound 2249, 2-({5-chloro-1H-imidazo[4,5-b]pyridin-2-yl}methyl)-8-(2-chloro-4-methoxyphenyl)-2H,3H-imidazo[1,5-a]pyrazin-3-one]	> 2	122	1070	1200 nM and 1140 nM and > 2000 nM	1200	–	–	30.9	31.6	76.4	–	–	3.33, μg/ml and 3.16 μg/ml	114	–	–
C[S+]([O-])c1nc(Cc2ccc(Cl)cc2Cl)cn1Cc1nc2nc(Cl)ccc2[nH]1 (centres unmarked) [Compound 2110, 1-({5-chloro-1H-imidazo[4,5-b]pyridin-2-yl}methyl)-4-[(2,4-dichlorophenyl)methyl]-2-methanesulfinyl-1H-imidazole]	0.795 (≈ 1.75 µM)	98.6	1270	–	–	< 40	2.36 (≈ 5.19 µM)	19.4	–	178	1.99 (≈ 4.38 µM)	–	–	–	< 25	> 4
COc1cc(Cl)c(-c2cccc3c2CN(Cc2nc4nc(Cl)ccc4[nH]2)C3=O)cc1OC [Compound 2231, 2-((5-chloro-1H-imidazo[4,5-b]pyridin-2-yl)methyl)-4-(2-chloro-4,5-dimethoxyphenyl)isoindolin-1-one]	–	< 40	–	–	10	–	< 0.00781	< 0.91	0.66	–	–	–	–	–	–	–
CC(C)n1c(Cc2ccc(Cl)cc2Cl)cn(Cc2nc3ccc(F)nc3[nH]2)c1=O [Compound 2080, 4-[(2,4-dichlorophenyl)methyl]-1-({5-fluoro-1H-imidazo[4,5-b]pyridin-2-yl}methyl)-3-(propan-2-yl)-2,3-dihydro-1H-imidazol-2-one]	0.999 (≈ 2.3 µM)	< 40	610	434 nM	3850	< 40	1.4 (≈ 3.22 µM)	–	–	220	–	–	–	–	–	–

Further lines, with some results ahead:

MIC [1] [µg/mL]	IC50 (MetRS (C. parvum)) [nM]	EC50 (C. parvum; Cryptosporidium parvum) [nM]	EC50 (C. parvum)	EC50 [2] [nM]	IC50 (MetRS (T. brucei)) [nM]	MIC [3] [µg/mL]	EC50 (T. brucei; Trypanosoma brucei) [nM]	EC50 (T. brucei) [nM]	EC50 (T. cruzi; Trypanosoma cruzi) [nM]	MIC [4] [µg/mL]	(I) E. faecium (ATCC 51559) MIC [4] [µg/mL]	(F) S. aureus (ATCC 29213) MIC [1]	EC50 (T. cruzi) [nM]	Structure (SMILES)	IC50 [5] [nM]	MIC (S. pyogenes (ATCC 19615)) [µg/mL]
0.259 (≈ 0.538 µM)	< 40	144	195 nM	10	< 40	–	–	–	–	–	–	–	–	COc1ccc(-c2ccc(NC(C)=O)c3nc(Cc4nc5nc(Cl)ccc5[nH]4)cn23)c(Cl)c1 [Compound 2169, N-[2-({5-chloro-1H-imidazo[4,5-b]pyridin-2-yl}methyl)-5-(2-chloro-4-methoxyphenyl)imidazo[1,2-a]pyridin-8-yl]acetamide]	–	–
–	< 40	–	–	20	–	0.186 (≈ 0.401 µM)	23.3	27.8	207	0.147 (≈ 0.317 µM)	–	–	–	COc1ccc(-c2cccc3c2CN(Cc2nc4c(C#N)c(Cl)ccc4[nH]2)C3=O)c(Cl)c1 [Compound 2233, 5-chlor0-2-((4-(2-chloro-4-methoxyphenyl)-1-oxoisoindolin-2-yl)methyl)-1H-benzo[d]imidazole-4-carbonitrile]	–	–
–	< 40	531	800 nM	50	–	1.81 (≈ 3.55 µM)	8.97	11.8	112	0.599 (≈ 1.17 µM)	0.847	–	–	COc1ccc(Cc2cn(Cc3nc4c(Cl)c(Cl)ccc4[nH]3)c(=O)n2CC(C)(C)O)c(Cl)c1 [Compound 2242, 4-[(2-chloro-4-methoxyphenyl)methyl]-1-[(6,7-dichloro-1H-1,3-benzodiazol-2-yl)methyl]-3-(2-hydroxy-2-methylpropyl)-2,3-dihydro-1H-imidazol-2-one]	–	–
0.393 (≈ 0.895 µM)	< 40	211	196 nM	10	–	0.165 (≈ 0.376 µM)	–	–	28	0.0765 (≈ 0.174 µM)	0.134	0.304 µg/mL	39.6	COc1ccc(-c2cccc3c2CN(Cc2nc4nc(Cl)ccc4[nH]2)C3=O)c(Cl)c1 [Compound 2230, 2-((5-chloro-1H-imidazo[4,5-b]pyridin-2-yl)methyl)-4-(2-chloro-4-methoxyphenyl)isoindolin-1-one]	–	–
–	< 40	–	–	20	–	0.0578 (≈ 0.114 µM)	< 0.91	0.68	5.7	0.0141 (≈ 0.0278 µM)	0.0122	–	6.83	COc1cc(Cl)c(Cc2cn(Cc3nc4nc(Cl)ccc4[nH]3)c(=O)n2CC(C)(C)O)cc1OC [Compound 2240, 1-({5-chloro-1H-imidazo[4,5-b]pyridin-2-yl}methyl)-4-[(2-chloro-4,5-dimethoxyphenyl)methyl]-3-(2-hydroxy-2-methylpropyl)-2,3-dihydro-1H-imidazol-2-one]	–	–
0.218 (≈ 0.458 µM)	< 40	129	–	30	< 40	0.334 (≈ 0.701 µM)	–	–	–	–	–	0.424 µg/mL	–	COc1ccc(Cc2cn(Cc3nc4nc(Cl)ccc4[nH]3)c(=O)n2CC(C)(C)O)c(Cl)c1 [Compound 2207, 1-({5-chloro-1H-imidazo[4,5-b]pyridin-2-yl}methyl)-4-[(2-chloro-4-methoxyphenyl)methyl]-3-(2-hydroxy-2-methylpropyl)-2,3-dihydro-1H-imidazol-2-one]	–	–
